Test results published in patent US9808500B2, “Antithrombotic nanoparticle” (Washington University, priority 2009, dated 2017).
pKi: −log10 of the molar value. “Also recorded” adds a separate entry of the source.

Experiments:
thrombin [1] = molecular target: T1, thrombin (Homo sapiens, UniProt P00734); conditions: thrombin inhibitor, quoted; cited from earlier work
[2] = in vivo; cited from earlier work
mice = conditions: cited from earlier work
C57BL/6 mice [3] = assay: Photochemical (rose bengal) injury, thrombotic occlusion of the carotid artery; assay type: in vivo, mouse; conditions: for time to occlusion of the carotid artery: i.v. bolus 10 min before rose bengal, heparin 0.125 mg/kg, PPACK 12.5 mg/kg, nanoparticles 1 mL/kg; for effect on occlusion time / thrombus formation (in words): photochemical injury, C57BL/6 mice
Text: As described in previous work, 10-12 week old male C57BL/6 mice (weight 25-30 g) were subjected to photochemical injury of the carotid. After anesthetization with sodium pentobarbital, the mice were secured under a dissecting microscope for isolation of the right common carotid artery via midline cervical incision. An ultrasonic flow probe (model 0.5 VB Transonic Systems, Ithaca, N.Y.) was applied to the artery to measure flow for the duration of each experiment. A 1.5 mW 540 nm HeNe laser (Melles Griot, Carlsbad, Calif.) was focused on the artery at a distance of 6 cm. […] In additional control experiments (n=4), no treatment preceded injection of the rose bengal dye. Occlusion of the carotid artery was noted and experiments were terminated upon the stable (>5 minutes) maintenance of zero flow.

thrombin [4] = molecular target: T1, thrombin; assay: Thrombin inhibition and inhibition kinetics with chromogenic substrate Chromozym TH; assay type: biochemical
Description: Tosyl-Gly-Pro-Arg-4 nitranilide acetate (Chromozym TH, Roche Applied Science) was employed to assay PPACK inhibition of thrombin and plasmin in accordance with previously described methods [31]. 100 μL of 12 nM thrombin was incubated for one minute at room temperature with selected amounts of PPACK or PPACK-nanoparticles or with an excess of bare nanoparticles. 500 μL (100 μM) of the thrombin substrate Tosyl-Gly-Pro-Arg-4 nitranilide acetate were added to terminate the PPACK-thrombin interaction. In accordance with previous work, thrombin activity against the substrate was measured via absorbance at 405 nm. The rate of change in absorbance at 405 nm was taken as representative of the amount of uninhibited thrombin available to cleave Chromozym TH.
In additional experiments, Chromozym TH was used to determine the kinetics of the PPACK-thrombin interaction. […] Thrombin activity was measured as above. Kinetics of inhibition were characterized in accordance with the work of Kettner and Shaw [26]. The assay yielded the apparent pseudo-first-order rate constant for thrombin inactivation (kapp). Modeling inhibition according to equation (1), an estimate of the second order constants (k2/Ki) for the PPACK-thrombin interaction and the PPACK nanoparticle-thrombin interaction were obtained via equation (2). To best obtain a pseudo-first-order reaction, thrombin dilution was maximized within the limits set by the sensitivity of the Chromozym TH assay.

thrombin [5] = molecular target: T1, thrombin; conditions: literature value; cited from earlier work
[6] = Stability of the nanoparticle formulation (HPLC of unattached PPACK after storage); assay type: physicochemical; conditions: PPACK particles: after dialysis and one week storage at four degrees
Description: To functionalize particles containing 1,2-distearoyl-sn-glycero-3-phosphoethanolamine-N-[carboxy(polyethylene glycol)-2000] with PPACK, amine-carboxyl coupling was employed to conjugate the PPACK N-terminus to the bare carboxyl groups on the synthesized particles. After one hour mixing of 1 mL emulsion with 12.5 mg PPACK, EDCI 1-[3-(Dimethylamino)propyl]-3-ethylcarbodiimide methiodide (2 mg) was added for overnight coupling. Excess PPACK and EDCI were removed by dialysis (MWCO 3000-5000). Particle size was assessed before and after PPACK conjugation as described above. Extent of PPACK coupling was determined by reverse-phase HPLC quantification of uncoupled PPACK after centrifugation of nanoparticles with Cleanascite lipid adsorption reagent (Agilent Technologies). […] PPACK was detected via phenylalanine absorbance (258 nm). Zeta potential measurements, taking into consideration hydrodynamic diameter measurements, were used for further verification of PPACK coupling (Brookhaven Instruments).

C57BL/6 mice [7] = conditions: heparin 0.125 mg/kg, rose bengal model; cited from earlier work

In the case of CN[C@H](Cc1ccccc1)C(=O)N1CCC[C@H]1C(=O)N[C@H](C=O)CCCN=C(N)N [Efegatran], the pKi (thrombin [1]) is listed as 8.92.
For NC(N)=NCCC[C@H](NC(=O)[C@@H]1CCCN1C(=O)[C@H](N)Cc1ccccc1)C(=O)CCl [PPACK, D-phenylalyl-L-prolyl-L-arginyl-chloromethyl ketone], the distribution half-life [2] is listed as 7 min, the “elimination (clearance) half-life” value [2] is listed as 2.9 min and the LD50 (mice) is listed as “greater than 50 mg/kg”. The long-term toxicity (mice) was “no long-term toxicity”, the “time to occlusion of the carotid artery” value (C57BL/6 mice [3]) was 71 ± 19 min and the “effect on occlusion time / thrombus formation (in words)” value (C57BL/6 mice [3]) was “allowed a steady approach to complete occlusion; also recorded: did not delay occlusion time”. For the same compound, the “effect on thrombin activity against Chromozym TH (in words)” value (thrombin [4]) was “no significant thrombin activity apparent beyond a ten-fold excess”, the “pseudo-first-order rate constant kapp” value (thrombin [4]; 0.92 nM thrombin, 5 nM PPACK or 0.3 pM PPACK nanoparticles) was 1.824 min⁻¹ and the “second order constant (k2/Ki), per PPACK” value (thrombin [4]; free PPACK or PPACK on the particles, 5 nM PPACK) was 6.08e+06 M⁻¹ s⁻¹. For the same compound, the “decay constant of thrombin activity with inhibitor concentration” value (thrombin [4]; one-minute incubation, per PPACK concentration) was 0.026 nM⁻¹ and the “second order constant found by Kettner and Shaw” value (thrombin [5]) was 2e+07 M⁻¹ s⁻¹.
In the case of “Bivalirudin nanoparticles: Bivalirudin conjugated at the N-terminus to Carboxy-PEG functionalized perfluorocarbon nanoparticles”, the “stability of the nanoparticle formulation” value [6] was “analogous coupling and stability characteristics” and the “effect on occlusion time / thrombus formation (in words)” value (C57BL/6 mice [3]) was “Bivalirudin nanoparticles did”.
In the case of “Bivalirudin: short synthetic peptide, specific and reversible direct thrombin inhibitor”, the “effect on occlusion time / thrombus formation (in words)” value (C57BL/6 mice [3]) was “did not significantly extend occlusion time” and the “effect on thrombin activity against Chromozym TH (in words)” value (thrombin [4]) was “less active, but more specific than PPACK”.
For Heparin, the “occlusion time in previous trials” value (C57BL/6 mice [7]) is given as 97 ± 18 min, the “time to occlusion of the carotid artery” value (C57BL/6 mice [3]) is given as 102 ± 13 min and the “effect on occlusion time / thrombus formation (in words)” value (C57BL/6 mice [3]) is given as “formation of a stable thrombus was noticeably delayed”.
